Paper PMC7930575, “Comparison of the Inhibitory Binding Modes Between the Planar Fascaplysin and Its Nonplanar Tetrahydro-β-carboline Analogs in CDK4” (Frontiers in Chemistry, 2021)
Where two headings read alike, the source gives them in different places.

Key:
[1] = molecular target: T1, CDK4/CycD3 (Homo sapiens, UniProt P11802); experiment: CDK4 kinase inhibition assay (mobility shift assay); format: biochemical; conditions: mean of three independent experiments
T1 construct: purchased Cama
Method: In this study, the inhibitory activities of the synthesized compounds against CDK4/CycD3 were also evaluated using mobility shift assay, and fascaplysin was used as the positive control compound. CDK4/CycD3 was from Cama, kinase substrate peptide was from GL, and fascaplysin was from Selleckchem. First, the kinase base buffer should be prepared (50.0 mmol/L HEPES, pH 7.5, 5 mM MgCl2, 1 mmol DTT, 0.0015% Brij-35). Second, 50 μg CDK4 kinase was added to the kinase base buffer to prepare the kinase solution. The kinase base buffer was used to prepare ATP and substrate peptide solutions, and the obtained solutions were mixed. Third, the synthesized compounds as well as the fascaplysin were diluted with DMSO to the desired concentrations. Fourth, the reaction mixture was incubated at 30°C for 40 min, and 25 μl stop buffer was added to stop the reaction. Finally, conversion was read by Caliper, and GraphPad Prism 5.0 was used to calculate the IC50 values of the compounds against enzyme bioactivities (Table 2).

[2] = test system: HeLa; experiment: MTT cytotoxicity assay, HeLa cells, 48 h; format: cell-based; conditions: Homo sapiens, read-out: Cytotoxicity (IC50, μM) HeLa
Method: (§1) The cytotoxicity of the target compounds was evaluated via MTT assay; A549, HeLa, HepG2, and WI-38 were selected for the experiment; and the selected cell lines were purchased from Lanzhou Weihuan Biotechnology Development Co., Ltd. All cell lines were maintained in RPMI-1640 medium supplemented with 10% fetal calf serum under the environment of 5% CO2 concentration and 37°C. The incubated tumor cells were seeded in the prepared 96-well plates, respectively, to make them attach for 12 h. Afterward, the cells were processed with the synthesized compounds with different concentrations as well as fascaplysin as the reference group for 48 h. After 48 h, 10 μl of MTT solution (5 mg/ml in PBS) was added into each well and incubated for 4 h. Then, the medium was removed and 100 μl DMSO was added to dissolve the blue-colored formazan. The absorbance was detected at 570 nm by microplate reader to calculate the inhibition rate (%) and the IC50 was defined using GraphPad Prism Software (version 5.02) (shown in Table 1).

[3] = MTT cytotoxicity assay, normal cells WI-38, 48 h; format: cell-based; conditions: human
Method: as §1

[4] = test system: A549; experiment: MTT cytotoxicity assay, A549 cells, 48 h; format: cell-based; conditions: Homo sapiens, read-out: Cytotoxicity (IC50, μM) A549
Method: as §1

[5] = test system: HepG2; experiment: MTT cytotoxicity assay, HepG2 cells, 48 h; format: cell-based; conditions: Homo sapiens, read-out: Cytotoxicity (IC50, μM) HepG2
Method: as §1

[6] = MTT assay, three independent experiments
[7] = WI-38 cells (normal cell line), normal cell line, MTT assay, 48 h, three independent experiments, read-out: Cytotoxicity (IC50, μM) WI-38
[8] = A549, MTT assay, 48 h, three independent experiments
[9] = HepG2, MTT assay, 48 h, three independent experiments

T1 sequence (P11802 whole entry): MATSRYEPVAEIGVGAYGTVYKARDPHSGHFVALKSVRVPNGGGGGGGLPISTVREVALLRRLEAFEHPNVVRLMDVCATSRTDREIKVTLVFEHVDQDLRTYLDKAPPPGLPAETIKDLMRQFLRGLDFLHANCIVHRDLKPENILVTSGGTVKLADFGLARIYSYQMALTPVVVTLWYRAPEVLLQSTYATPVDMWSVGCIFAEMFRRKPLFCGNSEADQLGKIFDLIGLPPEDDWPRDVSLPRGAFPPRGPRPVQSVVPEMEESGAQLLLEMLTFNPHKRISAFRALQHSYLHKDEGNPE
T1 sequence (P30281 whole entry partner): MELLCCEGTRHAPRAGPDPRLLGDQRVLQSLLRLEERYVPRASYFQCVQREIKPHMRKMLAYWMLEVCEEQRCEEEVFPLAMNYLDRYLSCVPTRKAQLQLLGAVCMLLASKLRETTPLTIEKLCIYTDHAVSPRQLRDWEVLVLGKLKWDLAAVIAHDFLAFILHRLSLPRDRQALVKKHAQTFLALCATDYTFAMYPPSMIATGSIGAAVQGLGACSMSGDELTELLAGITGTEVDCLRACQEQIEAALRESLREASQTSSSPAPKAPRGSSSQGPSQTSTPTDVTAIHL

Row | SMILES | IC50 [1] | melting point | IC50 [2, 6] | IC50 at 48 h [3, 7] | IC50 [4, 8] | IC50 [5, 9] | IC50 [2] | IC50 at 48 h [3] | IC50 ([4]; A549, 48 h) | IC50 ([5]; HepG2, 48 h)
1 | COC(=O)C1c2[nH]c3ccccc3c2CCN1C(=O)c1ccc(I)cc1 (stereo not drawn) [Compound 6d, Methyl-2-(4-iodobenzoyl)-2,3,4,9-tetrahydro-1H-pyrido [3,4-b] indole-1-carboxylate] | 30.3 µM | 195.6 to 196.5 °C | 19.4 ± 2.56 µM | 373 ± 62.8 µM | 10.8 ± 1.17 µM | 33.4 ± 5.18 µM |  |  |  | 
2 | COC(=O)C1c2[nH]c3ccccc3c2CCN1C(=O)c1ccc(-c2ccccc2)cc1 (stereo not drawn) [Compound 6c, Methyl-2-([1, 1’-biphenyl]-4-carbonyl)-2,3,4,9-tetrahydro-1H-pyrido [3,4-b] indole-1 carboxylate] | 1.89 µM | 177.8 to 179.6 °C | 1.03 ± 0.19 µM | 312 ± 56.1 µM | 6.53 ± 1.65 µM | 5.21 ± 0.58 µM |  |  |  | 
3 | COC(=O)C1c2[nH]c3ccccc3c2CCN1C(=O)c1ccc(Cl)cc1 (stereo not drawn) [Compound 6g, Methyl 2-(4-chlorobenzoyl)-2,3,4,9-tetrahydro-1H-pyrido[3,4-b] indole-1-carboxylate] | 27.5 µM | 200.3 to 201.5 °C | 22.9 ± 2.31 µM | 375 ± 60 µM | 25.7 ± 8.78 µM | 13.7 ± 2.13 µM |  |  |  | 
4 | O=C1c2ccccc2-[n+]2ccc3c([nH]c4ccccc43)c21 [Fascaplysin] | 0.79 ± 0.72 µM |  |  |  |  |  | 0.56 ± 0.05 µM | 1.86 ± 0.17 µM | 1.05 ± 0.08 µM | 0.24 ± 0.04 µM
5 | COC(=O)C1c2[nH]c3ccccc3c2CCN1C(=O)c1ccc(C(F)(F)F)cc1 (stereo not drawn) [Compound 6f, Methyl-2-(4-(trifluoromethyl)benzoyl)-2,3,4,9-tetrahydro-1H-pyrido [3,4-b] indole-1-carboxylate] | 39.6 µM | 193.3 to 194.36 °C | 29.9 ± 4.73 µM | 125 ± 26.1 µM | 38.7 ± 7.25 µM | 35.8 ± 3.23 µM |  |  |  | 
6 | COC(=O)C1c2[nH]c3ccccc3c2CCN1C(=O)c1ccc(F)cc1 (stereo not drawn) [Compound 6a, Methyl-2-(4-fluorobenzoyl)-2,3,4,9-tetrahydro-1H-pyrido [3,4-b] indole-1-carboxylate] | 29.6 µM | 182.8 to 183.7 °C | 28.4 ± 1.12 µM | 253 ± 33.2 µM | 38.3 ± 2.53 µM | 31.6 ± 2.53 µM |  |  |  | 
7 | COC(=O)C1c2[nH]c3ccccc3c2CCN1C(=O)c1ccccc1 (stereo not drawn) [Compound 6e, Methyl-2-benzoyl-2,3,4,9-tetrahydro-1H-pyrido [3,4-b] indole-1-carboxylate] | 20.7 µM |  | 16.8 ± 4.12 µM | 118 ± 12.9 µM | 15.5 ± 1.26 µM | 31.8 ± 2.86 µM |  |  |  | 
8 | COC(=O)C1c2[nH]c3ccccc3c2CCN1C(=O)c1ccc2c(c1)OCO2 (stereo not drawn) [Compound 6i, Methyl-2-(benzo [d] [1,3]dioxole-5-carbonyl)-2,3,4,9-tetrahydro-1H-pyrido [3,4-b] indole-1-carboxylate] | 3.38 µM | 165.3 to 166.7 °C | 3.57 ± 0.93 µM | 247 ± 10.9 µM | 9.6 ± 3.22 µM | 12.2 ± 3.01 µM |  |  |  | 
9 | COC(=O)C1c2[nH]c3ccccc3c2CCN1C(=O)c1ccc(OC)cc1 (stereo not drawn) [Compound 6b, Methyl-2-(4-methoxybenzoyl)-2,3,4,9-tetrahydro-1H-pyrido [3,4-b] indole-1-carboxylate] | 25.7 µM | 200.8 to 201.6 °C | 14.1 ± 2.69 µM | 267 ± 28.9 µM | 13.2 ± 1.21 µM | 26.3 ± 1.88 µM |  |  |  | 
10 | COC(=O)C1c2[nH]c3ccccc3c2CCN1C(=O)c1ccc2ccccc2c1 (stereo not drawn) [Compound 6h, Methyl-2-(2-naphthoyl)-2,3,4,9-tetrahydro-1H-pyrido [3,4-b] indole-1-carboxylate] | 12.4 µM | 183.6 to 184.5 °C | 10.8 ± 2.69 µM | 186 ± 12.4 µM | 12.7 ± 1.2 µM | 19.5 ± 0.43 µM |  |  |  | 

Now from value to molecule, other results behind:

Row | IC50 [1] | melting point | SMILES | IC50 [2, 6] | IC50 at 48 h [3, 7] | IC50 [4, 8] | IC50 [5, 9] | IC50 [2] | IC50 at 48 h [3] | IC50 ([4]; A549, 48 h) | IC50 ([5]; HepG2, 48 h)
11 | 16.4 µM | 209.6 to 211.5 °C | CCOC(=O)C1c2[nH]c3ccccc3c2CCN1C(=O)c1ccc2ccccc2c1 (stereo not drawn) [Compound 7h, Ethyl-2-(2-naphthoyl)-2,3,4,9-tetrahydro-1H-pyrido [3,4-b] indole-1-carboxylate] | 16.5 ± 6.64 µM | 183 ± 13.2 µM | 25.5 ± 3.92 µM | 17.5 ± 13.8 µM |  |  |  | 
12 | 30.7 µM | 206.9 to 209.8 °C | CCOC(=O)C1c2[nH]c3ccccc3c2CCN1C(=O)c1ccc(OC)cc1 (stereo not drawn) [Compound 7b, Ethyl-2-(4-methoxybenzoyl)-2,3,4,9-tetrahydro-1H-pyrido [3,4-b] indole-1-carboxylate] | 15.4 ± 3.1 µM | 429 ± 38.9 µM | 15.5 ± 13.4 µM | 41.5 ± 2.42 µM |  |  |  | 
13 | 4.89 µM | 201.4 to 201.8 °C | CCOC(=O)C1c2[nH]c3ccccc3c2CCN1C(=O)c1ccc(-c2ccccc2)cc1 (stereo not drawn) [Compound 7c, Ethyl 2-([1, 1’-biphenyl]-4-carbonyl)-2,3,4,9-tetrahydro-1H-pyrido [3,4-b] indole-1 carboxylate] | 4.71 ± 0.7 µM | 281 ± 7.81 µM | 10.5 ± 1.5 µM | 10.8 ± 1.49 µM |  |  |  | 
14 | 29.7 µM | 196.5 to 198.6 °C | CCOC(=O)C1c2[nH]c3ccccc3c2CCN1C(=O)c1ccccc1 (stereo not drawn) [Compound 7e, Ethyl-2-benzoyl-2,3,4,9-tetrahydro-1H-pyrido [3,4-b] indole-1-carboxylate] | 19.9 ± 2.45 µM | 99.8 ± 9.97 µM | 27.3 ± 6.5 µM | 21.4 ± 1.69 µM |  |  |  | 
15 | 9.38 ± 1.79 µM | 202.5 to 204.6 °C | CCOC(=O)C1c2[nH]c3ccccc3c2CCN1C(=O)c1ccc2c(c1)OCO2 (stereo not drawn) [Compound 7i, Ethyl-2-(benzo [d] [1,3]dioxole-5-carbonyl)-2,3,4,9-tetrahydro-1H-pyrido [3,4-b] indole-1-carboxylate] | 6.18 ± 2.78 µM | 256 ± 56 µM | 20 ± 5.57 µM | 23.2 ± 9.17 µM |  |  |  | 
16 | 43.9 µM |  | CCOC(=O)C1c2[nH]c3ccccc3c2CCN1C(=O)c1ccc(C(F)(F)F)cc1 (stereo not drawn) [Compound 7f, Ethyl-2-(4-(trifluoromethyl)benzoyl)-2,3,4,9-tetrahydro-1H-pyrido [3,4-b] indole-1-carboxylate] | 47 ± 4.8 µM | 183 ± 17.9 µM | 42.1 ± 7.6 µM | 16.2 ± 3.72 µM |  |  |  | 
17 | 30.4 µM | 232.3 to 233.5 °C | CCOC(=O)C1c2[nH]c3ccccc3c2CCN1C(=O)c1ccc(Cl)cc1 (stereo not drawn) [Compound 7g, Ethyl-2-(4-chlorobenzoyl)-2,3,4,9-tetrahydro-1H-pyrido[3,4-b] indole-1-carboxylate] | 24.9 ± 3.44 µM | 200 ± 9.97 µM | 27.3 ± 2.4 µM | 41.4 ± 1.69 µM |  |  |  | 
18 | 35.3 µM | 175.6 to 176.3 °C | CCOC(=O)C1c2[nH]c3ccccc3c2CCN1C(=O)c1ccc(I)cc1 (stereo not drawn) [Compound 7d, Ethyl-2-(4-iodobenzoyl)-2,3,4,9-tetrahydro-1H-pyrido[3,4-b] indole-1-carboxylate] | 27.6 ± 2.38 µM | 183 ± 17.9 µM | 20.4 ± 2.68 µM | 28.2 ± 0.95 µM |  |  |  | 
